Peptide text beside a SMILES is read from it.
Tests used:
[1] = test system: fecal matter from naïve mice; test: In vitro anaerobic culturing of fecal matter with saccharin; type: cell-based; conditions: In vitro, PBS vs. SAC
Protocol: pooled fecal matter from naïve adult WT C57Bl/6 male mice was resuspended in 5 ml PBS in an anaerobic chamber (Coy Laboratory Products, 75% N2, 20% CO2, 5% H2), vortexed for 3 minutes and allowed to settle by gravity for 2 minutes. […] were added to a tube containing Chopped Meat Carbohydrate Broth, PR II (BD) and […] of a 5 mgml-1 saccharin solution or an equal volume of PBS. Every 3 days, 500 ml of culture were diluted to fresh medium containing saccharin or PBS. After 9 days, cultures were used for inoculation of germ-free mice.
Frozen fecal samples were processed for DNA isolation using the MoBio PowerSoil kit according to the manufacturer's instructions. […] the variable region 2 (V2) of the 16S rRNA gene were generated by using the following barcoded primers: Fwd 5′-[…]-3′ (SEQ ID NO: 3), Rev 5′-[…]-3′ (SEQ ID NO: 4). […] Reads were then processed using the QIIME (Quantitative Insights Into Microbial Ecology) analysis pipeline as described, version 1.8. Paired-end joined sequences were grouped into operational taxonomic units (OTUs) using the UCLUST algorithm and the greengenes database. Sequences with distance-based similarity of 97% or greater over median sequence length of 353 bp were assigned to the same OTU. Samples were grouped according to the treatment. […] P-values were FDR corrected for multiple hypothesis testing.

mice = test: Oral glucose tolerance test in mice drinking non-caloric artificial sweeteners (NAS); type: in vivo; conditions: lean C57Bl/6 mice, normal chow, commercial NAS formulations in drinking water, week 11; p<0.001 vs water, glucose, sucrose
From the text: C57Bl/6 WT adult male mice were randomly assigned (without blinding) to treatment groups and were given commercial artificial sweeteners (saccharin-, sucralose- or aspartame-based) or pure saccharin (Sigma Aldrich) in drinking water and fed a high-fat (HFD D12492, 60% Kcal from fat, Research Diets) or standard polysaccharide normal chow (NC) diet (Harlan-Teklad). Compared groups were always fed from the same batch of diet. For antibiotic treatment, mice were given a combination of ciprofloxacin (0.2 gl^−1) and metronidazole ([…]) or vancomycin (0.5 gl^−1) in their drinking water. All antibiotics were obtained from Sigma Aldrich. Adult male outbred Swiss-Webster mice (a widely used mouse strain in germ-free experiments) served as recipients for fecal transplants and were housed in sterile isolators (Park Biosciences). For fecal transplantation experiments, 200 mg of stool (from mouse pellets or human swabs) was resuspended in 5 ml of PBS under anaerobic conditions, vortexed for 3 minutes and allowed to settle by gravity for 2 minutes. Recipient mice were gavaged with 200 μl of the supernatant and maintained on standard NC diet and water throughout the experiment.
The following commercially available NAS were dissolved in mice drinking water to obtain a 10% solution: Sucrazit (5% saccharin, 95% glucose), Sucralite (5% Sucralose), Sweet'n Low Gold (4% Aspartame). 10% glucose (J.T. Baker) and 10% sucrose (Sigma Aldrich) solutions were used for controls. […] For experiments conducted with pure saccharin (Sigma Aldrich) a 0.1 mgml^−1 solution was used in order to meet with FDA defined ADI for saccharin in humans (5 mgkg^−1), according to the following calculation:
Mice were fasted for 6 hours during the light phase, with free access to water. In all groups of mice where the drinking regime was other than water, it was substituted for water for the period of the fasting and glucose or insulin tolerance test. Blood from the tail vein was used to measure glucose levels using a glucometer (Bayer) immediately before and 15, 30, 60, 90 and 120 minutes after oral feeding with 40 mg glucose (J.T. Baker) or intra-peritoneal injection with 0.1 Ukg^−1 Insulin (Biological Industries). Plasma fasting insulin levels were measured in sera collected immediately before the start of GTT using ELISA (Ultra Sensitive Mouse Insulin ELISA Kit, Crystal Chem).

[2] = literature values; cited from earlier work

O=C1NS(=O)(=O)c2ccccc21 [SAC]
Log_fold change: 2-Oxocarboxylic acid metabolism [1]: 0.01 | Log_fold change: ABC transporters [1]: −0.03 | Log_fold change: Alanine, aspartate and glutamate metabolism [1]: −0.01 | Log_fold change: Amino sugar and nucleotide sugar metabolism [1]: 0.01 | Log_fold change: Aminoacyl-tRNA biosynthesis [1]: −0.02 | Log_fold change: Aminobenzoate degradation [1]: −0.01 | Log_fold change: Arginine and proline metabolism [1]: −0.01 | Log_fold change: Ascorbate and aldarate metabolism [1]: 0.03 | Log_fold change: Atrazine degradation [1]: −0.05 | Log_fold change: Bacterial chemotaxis [1]: 0.03 | Log_fold change: Bacterial secretion system [1]: 0.01 | Log_fold change: Base excision repair [1]: 0.00 | Log_fold change: Benzoate degradation [1]: −0.01 | Log_fold change: Biosynthesis of amino acids [1]: 0.00 | Log_fold change: Biosynthesis of siderophore group nonribosomal peptides [1]: −0.02 | Log_fold change: Biosynthesis of unsaturated fatty acids [1]: −0.03 | Log_fold change: Biotin metabolism [1]: −0.01 | Log_fold change: Bisphenol degradation [1]: 0.00 | Log_fold change: Butanoate metabolism [1]: −0.01 | Log_fold change: CS-Branched dibasic acid metabolism [1]: 0.01 | Log_fold change: Caprolactam degradation [1]: −0.02 | Log_fold change: Carbon fixation in photosynthetic organisms [1]: 0.00 | Log_fold change: Carbon fixation pathways in prokaryotes [1]: 0.00 | Log_fold change: Carbon metabolism [1]: −0.01 | Log_fold change: Cell cycle-Caulobacter [1]: 0.00 | Log_fold change: Chloroalkane and chloroalkene degradation [1]: −0.03 | Log_fold change: Citrate cycle (TCA cycle) [1]: 0.00 | Log_fold change: Cyanoamino acid metabolism [1]: 0.02 | Log_fold change: Cysteine and methionine metabolism [1]: 0.01 | Log_fold change: D-Alanine metabolism [1]: −0.04 | Log_fold change: D-Arginine and D-ornithine metabolism [1]: 0.24 | Log_fold change: D-Glutamine and D-glutamate metabolism [1]: −0.03 | Log_fold change: DDT degradation [1]: −0.35 | Log_fold change: DNA replication [1]: 0.00 | Log_fold change: Dioxin degradation [1]: −0.12 | Log_fold change: Drug metabolism-other enzymes [1]: 0.00 | Log_fold change: Ether lipid metabolism [1]: −0.02 | Log_fold change: Fatty acid biosynthesis [1]: −0.01 | Log_fold change: Fatty acid degradation [1]: −0.01 | Log_fold change: Fatty acid metabolism [1]: 0.00 | Log_fold change: Flagellar assembly [1]: 0.07 | Log_fold change: Folate biosynthesis [1]: 0.00 | Log_fold change: Fructose and mannose metabolism [1]: 0.00 | Log_fold change: Galactose metabolism [1]: 0.02 | Log_fold change: Geraniol degradation [1]: 0.00 | Log_fold change: Glutathione metabolism [1]: −0.03 | Log_fold change: Glycerolipid metabolism [1]: 0.00 | Log_fold change: Glycerophospholipid metabolism [1]: −0.02 | Log_fold change: Glycine, serine and threonine metabolism [1]: 0.00 | Log_fold change: Glycolysis/Gluconeogenesis [1]: −0.02 | Log_fold change: Glycosaminoglycan degradation [1]: 0.03 | Log_fold change: Glycosphingolipid biosynthesis-globoseries [1]: 0.05 | Log_fold change: Glyoxylate and dicarboxylate metabolism [1]: 0.01 | Log_fold change: Histidine metabolism [1]: 0.01 | Log_fold change: Homologous recombination [1]: −0.01 | Log_fold change: Inositol phosphate metabolism [1]: 0.02 | Log_fold change: Limonene and pinene degradation [1]: −0.01 | Log_fold change: Lipoicacid metabolism [1]: −0.01 | Log_fold change: Lipopolysaccharide biosynthesis [1]: 0.01 | Log_fold change: Lysine biosynthesis [1]: 0.00 | Log_fold change: Lysine degradation [1]: −0.03 | Log_fold change: Methane metabolism [1]: −0.01 | Log_fold change: Mismatch repair [1]: −0.01 | Log_fold change: Naphthalene degradation [1]: −0.02 | Log_fold change: Nicotinate and nicotinamide metabolism [1]: −0.02 | Log_fold change: Nitrogen metabolism [1]: 0.00 | Log_fold change: Nitrotoluene degradation [1]: −0.05 | Log_fold change: Novobiocin biosynthesis [1]: 0.02 | Log_fold change: Nucleotide excision repair [1]: 0.00 | Log_fold change: One carbon pool by folate [1]: 0.01 | Log_fold change: Other glycan degradation [1]: 0.03 | Log_fold change: Oxidative phosphorylation [1]: −0.02 | Log_fold change: Pantothenate and CoA biosynthesis [1]: 0.00 | Log_fold change: Penicillin and cephalosporin biosynthesis [1]: −0.02 | Log_fold change: Pentose and glucuronate interconversions [1]: 0.02 | Log_fold change: Pentose phosphate pathway [1]: 0.00 | Log_fold change: Peptidoglycan biosynthesis [1]: −0.02 | Log_fold change: Phenylalanine metabolism [1]: 0.01 | Log_fold change: Phenylalanine, tyrosine and tryptophan biosynthesis [1]: 0.01 | Log_fold change: Phosphonate and phosphinate metabolism [1]: −0.01 | Log_fold change: Phosphotransferase system (PTS) [1]: −0.17 | Log_fold change: Porphyrin and chlorophyll metabolism [1]: 0.01 | Log_fold change: Propanoate metabolism [1]: −0.01 | Log_fold change: Protein export [1]: −0.01 | Log_fold change: Proximal tubule bicarbonate reclamation [1]: −0.02 | Log_fold change: Purine metabolism [1]: −0.01 | Log_fold change: Pyrimidine metabolism [1]: −0.01 | Log_fold change: Pyruvate metabolism [1]: 0.00 | Log_fold change: RNA degradation [1]: −0.01 | Log_fold change: Riboflavin metabolism [1]: 0.01 | Log_fold change: Ribosome [1]: −0.01 | Log_fold change: Selenocompound metabolism [1]: −0.01 | Log_fold change: Sphingolipid metabolism [1]: 0.04 | Log_fold change: Starch and sucrose metabolism [1]: 0.01 | Log_fold change: Streptomycin biosynthesis [1]: 0.00 | Log_fold change: Styrene degradation [1]: 0.06 | Log_fold change: Sulfur metabolism [1]: −0.01 | Log_fold change: Sulfur relay system [1]: −0.03 | Log_fold change: Synthesis and degradation of ketone bodies [1]: −0.09 | Log_fold change: Taurine and hypotaurine metabolism [1]: 0.00 | Log_fold change: Terpenoid backbone biosynthesis [1]: −0.01 | Log_fold change: Tetracycline biosynthesis [1]: −0.15 | Log_fold change: Thiamine metabolism [1]: −0.02 | Log_fold change: Tropane, piperidine and pyridine alkaloid biosynthesis [1]: 0.02 | Log_fold change: Tryptophan metabolism [1]: −0.04 | Log_fold change: Two−component system [1]: 0.01 | Log_fold change: Tyrosine metabolism [1]: −0.01 | Log_fold change: Ubiquinone and other terpenoid-quinone biosynthesis [1]: −0.03 | Log_fold change: Valine, leucine and isoleucine biosynthesis [1]: 0.01 | Log_fold change: Valine, leucine and isoleucine degradation [1]: 0.00 | Log_fold change: Vibriocholerae pathogenic cycle [1]: 0.00 | Log_fold change: Vitamin B6 metabolism [1]: 0.00 | Log_fold change: Xylene degradation [1]: −0.12 | Log_fold change: beta-Alanine metabolism [1]: −0.01 | Log_fold change: beta-Lactam resistance [1]: 0.01

OC[C@H]1O[C@H](O[C@]2(CCl)O[C@H](CCl)[C@@H](O)[C@@H]2O)[C@H](O)[C@@H](O)[C@H]1Cl [sucralose]
glucose tolerance (OGTT) (mice): marked glucose intolerance | reported toxic dose [2]: 16 gkg^−1

COC(=O)[C@H](Cc1ccccc1)NC(=O)[C@@H](N)CC(=O)O [aspartame] (H-Asp-Phe-OMe)
glucose tolerance (OGTT) (mice): marked glucose intolerance | reported toxic dose [2]: 4 gkg^−1

Source: patent publication US20190022152A1, “MICROBIOME RESPONSE TO AGENTS” (Yeda Research and Development Co., Ltd., priority 2014, published 2019)
